Test results taken from patent US5571816A, “Pyrimidines” (Hoechst Aktiengesellschaft, priority 1992, dated 1996).
Counter-ions that a name gives are not always drawn. Like-named read-outs stand apart in the source and are kept apart here.

Tests used:
[1] = Solubility in water of salts (and free bases); format: physicochemical; conditions: for solubility: water
serum lipoproteins = assay: Effect on serum lipoproteins of normolipemic male rats in a subchronic experiment; format: in vivo; conditions: Rattus norvegicus, po, by stomach tube, 7 administrations; for change in vivo at 30 mg/kg: 30 mg/kg/day; for change in vivo at 3 mg/kg: 3 mg/kg/day; for change in vivo at 10 mg/kg: 10 mg/kg/day; for change in vivo at 100 mg/kg: 100 mg/kg/day
Method: 3. In vivo, the increased LDL receptor activity in experimental animals is reflected by reduction in the lipoprotein fractions which can be metabolized by the LDL receptor (apoB/E receptor), i.e. a reduction in the LDL and VLDL levels is observed. The following test was carried out:
Effect on serum lipoproteins of normolipemic male rats in a subchronic experiment
Groups of in each case 10 male rats of the HOE: WISKf (SPF 71) strain with an initial weight above 180 g received once a day (in the morning) the test product or the comparison product in 1% aqueous ®Tylose MH 300 solution by stomach tube (0.5 ml/100 g of body weight); the control group in each case received only the vehicle. The last (7th) administration took place 24 hours before removal of blood and sacrifice. There was free access to food and water during the test. The food was withdrawn 24 hours before the removal of blood.
The serum from all 10 rats in a group was pooled for the analysis of the serum lipoproteins. The serum lipoproteins were separated with a preparative ultracentrifuge (KONTRON TGA 65, Rotor BECKMAN 50.4 Ti).
The following conditions specified by Koga, S., Horwitz, D. L., and Scanu, A. M., Journal of Lipid Research 10, 577 (1969) and Havel, R. J., Eder, H. A., and Bragdon, H. H., J. Clin. Invest. 34, 1345 (1955) were used to separate VLDL and LDL: 1. VLDL: Density<1.006, 40,000 rpm for 16 hours 2. LDL: Density 1.006-1.04, 40,000 rmp for 16 hours
Test kits from BOEHRINGER/Mannheim were used for the enzymatic determination of cholesterol and triglycerides in the separated lipoprotein fractions (cf. Siedel, J., Schlumberger, H., Klose, S., Ziegenhorn, J. and Wahlefeld, A. W., J. Clin. Chem. Clin. Biochem. 19, 838 (1981) and Wahlefeld, A. W., in: H. O. Bergmeier: Methoden der enzymatischen Analyse (Methods of Enzymatic Analysis), 2nd edition, Volume II, Verlag Chemie 1974, page 1878). The proteins were determined by the method of Lowry (Lowry, O. H., Roseborough, N. H., Farr, A. L. and Randell, R. J., J. Biol. Chem. 193, 265 (1951)).
Clofibrate was used as comparison product.

[2] = Table 2, salts of compounds I, temp. by No. [°C]: 1 25.5, 2 23.0, 3 22.4, 4 22.4, 5 22.0, 6 25.0, 7 25.5, 8 25.5, 9 25.5, 10 23.5, 11 23.5, 12 25.0, 13 24.0, 14 23.0, 15 22.0, 16 24.5, 17 22.5, 18 22.0
[3] = Table 2, salts of compounds I, temp. by No. [°C]: 1 25.5, 2 23.0, 3 22.4, 4 22.4, 5 22.0, 6 25.0, 7 25.5, 8 25.5, 9 25.5, 10 23.5, 11 23.5, 12 25.0, 13 24.0, 14 23.0, 15 22.0, 16 24.5, 17 22.5, 18 22.0, read-out: Solubility in water, Concentration in % by wt.
[4] = read-out: Serum LDL cholesterol, % change from control at end of treatment
[5] = read-out: Serum LDL protein, % change from control at end of treatment
[6] = read-out: Serum VLDL cholesterol, % change from control at end of treatment
[7] = read-out: Serum VLDL protein, % change from control at end of treatment
[8] = read-out: Serum VLDL triglycerides, % change from control at end of treatment
[9] = Table 1, N-H analogs, temp. by No. [°C]: 1 25.0, 2 23.0, 3 26.2, 4 25.1, 5 25.2, 6 24.1, 7 24.5, 8 24.2, 9 24.2, 10 25.7, 11 25.8
[10] = Table 1, N-H analogs, temp. by No. [°C]: 1 25.0, 2 23.0, 3 26.2, 4 25.1, 5 25.2, 6 24.1, 7 24.5, 8 24.2, 9 24.2, 10 25.7, 11 25.8, read-out: Solubility in water, Concentration in % by wt.
[11] = Table 1, N-H analogs, temp. by No. [°C]: 1 25.0, 2 23.0, 3 26.2, 4 25.1, 5 25.2, 6 24.1, 7 24.5, 8 24.2, 9 24.2, 10 25.7, 11 25.8, read-out: Solubility in water, Molarity × 10^-3

CC1(C)CN(c2ncc(C(=O)N(CC3CC3)c3cc(C(F)(F)F)ccc3F)c(N)n2)C(=O)N1 [Example 61, 4-amino-2-(4,4-dimethyl-2-oxo-1-imidazolidinyl)pyrimidine-5-carboxylic acid N-cyclopropylmethyl-N-(2-fluoro-5-trifluoromethylphenyl)amide]
1 part by mass dissolves in ... parts by H2O [1, 2]: 65.8 parts by H2 O
solubility [1, 3]: 15 mg/mL

CN(C(=O)c1cnc(N2CC(C)(C)NC2=O)nc1N)c1cc(C(F)(F)F)ccc1Cl [Example 29]
change in vivo at 30 mg/kg (serum lipoproteins; [4]): -51%
change in vivo at 30 mg/kg (serum lipoproteins; [5]): -27%
change in vivo at 30 mg/kg (serum lipoproteins; [6]): -80%
change in vivo at 30 mg/kg (serum lipoproteins; [7]): 40%
change in vivo at 30 mg/kg (serum lipoproteins; [8]): -70%

CCCCN(C(=O)c1cnc(N2CC(C)(C)NC2=O)nc1N)c1cccc(C(F)(F)F)c1 [Example 6, 4-amino-2-(4,4-dimethyl-2-oxo-1-imidazolidinyl)pyrimidine-5-carboxylic acid N-butyl-N-(3-trifluromethylphenyl)amide hydrochloride]
change in vivo at 3 mg/kg (serum lipoproteins; [4]): -24%
change in vivo at 3 mg/kg (serum lipoproteins; [5]): -3%
change in vivo at 3 mg/kg (serum lipoproteins; [6]): -35%
change in vivo at 3 mg/kg (serum lipoproteins; [7]): -12%
change in vivo at 10 mg/kg (serum lipoproteins; [4]): -20%
change in vivo at 10 mg/kg (serum lipoproteins; [5]): -62%
change in vivo at 10 mg/kg (serum lipoproteins; [6]): -35%
change in vivo at 10 mg/kg (serum lipoproteins; [7]): -15%
change in vivo at 30 mg/kg (serum lipoproteins; [4]): -62%
change in vivo at 30 mg/kg (serum lipoproteins; [5]): -36%
change in vivo at 30 mg/kg (serum lipoproteins; [6]): 41%
change in vivo at 30 mg/kg (serum lipoproteins; [7]): -41%
change in vivo at 30 mg/kg (serum lipoproteins; [8]): -69%

CC1(C)CN(c2ncc(C(=O)Nc3cccc(C(F)(F)F)c3)c(N)n2)C(=O)N1 [4-amino-2-(4,4-dimethylimidazolidin-2-on-1-yl)pyrimidine-5-carboxylic acid N-(3-trifluoromethylphenyl)amide, reference compound]
solubility in water, in words ([1]; categories of the Deutsches Arzneibuch): exceptionally slightly soluble

CC1(C)CN(c2ncc(C(=O)N(CC3CC3)c3cccc(C(F)(F)F)c3)c(N)n2)C(=O)N1 [No. 9 (Table 2)]
1 part by mass dissolves in ... parts by H2O [1, 2]: 13.1 parts by H2 O
solubility [1, 3]: 71.1 mg/mL

C=CC1CN(c2ncc(C(=O)N(C)c3cccc(C(F)(F)F)c3)c(N)n2)C(=O)N1 (stereo not drawn) [Example 72, 4-amino-2-(4-vinyl-2-oxo-1-imidazolidinyl)pyrimidine-5-carboxylic acid N-methyl-N-(3-trifluoromethylphenyl)amide hydrochloride]
1 part by mass dissolves in ... parts by H2O [1, 2]: < 9 parts by H2 O
solubility [1, 3]: > 100 mg/mL

CC(C)N(C(=O)c1cnc(N2CC(C)(C)NC2=O)nc1N)c1cccc(C(F)(F)F)c1 [Example 3, 4-amino-2-(4,4-dimethyl-2-oxo-1-imidazolidinyl)pyrimidine-5-carboxylic acid N-isopropyl-N-(3-trifluoromethylphenyl)amide]
1 part by mass dissolves in ... parts by H2O [1, 2]: 24.7 parts by H2 O
solubility [1, 3]: 38.9 mg/mL

CC(C)CN(C(=O)c1cnc(N2CC(C)(C)NC2=O)nc1N)c1cccc(C(F)(F)F)c1 [Example 36]
change in vivo at 30 mg/kg (serum lipoproteins; [4]): -38%
change in vivo at 30 mg/kg (serum lipoproteins; [5]): -5%
change in vivo at 30 mg/kg (serum lipoproteins; [6]): -65%
change in vivo at 30 mg/kg (serum lipoproteins; [7]): -33%
change in vivo at 30 mg/kg (serum lipoproteins; [8]): 42%

CC1(C)CN(c2ncc(C(=O)Nc3ccc(F)c(C(F)(F)F)c3)c(N)n2)C(=O)N1 [No. 3 (Table 1), reference compound]
1 part by mass dissolves in ... parts of H2O [1, 9]: 703 parts of H2 O
solubility [1, 10]: 1.4 mg/mL
solubility [1, 11]: 3.17 mM

CC(C)CC(C)N(C(=O)c1cnc(N2CC(C)(C)NC2=O)nc1N)c1cccc(C(F)(F)F)c1 (stereo not drawn) [Example 38]
1 part by mass dissolves in ... parts by H2O [1, 2]: 15.3 parts by H2 O
solubility [1, 3]: 61.3 mg/mL

CC1(C)CN(c2ncc(C(=O)Nc3cccc(C(F)(F)F)c3)c(N)n2)C(=O)N1 [No. 2 (Table 1), reference compound]
Solubility in water, Molarity × 10^-3 [1, 9]: 0.90 Molarity × 10^-3

CN(C(=O)c1cnc(N2CC(C)(C)NC2=O)nc1N)c1ccc(Br)c(C(F)(F)F)c1 [Example 30]
change in vivo at 10 mg/kg (serum lipoproteins; [4]): -25%
change in vivo at 10 mg/kg (serum lipoproteins; [5]): -19%
change in vivo at 10 mg/kg (serum lipoproteins; [6]): -29%
change in vivo at 10 mg/kg (serum lipoproteins; [7]): -36%
change in vivo at 10 mg/kg (serum lipoproteins; [8]): 7%

COc1ccc(NC(=O)c2cnc(N3CC(C)(C)NC3=O)nc2N)cc1C(F)(F)F [No. 7 (Table 1), reference compound]
1 part by mass dissolves in ... parts of H2O [1, 9]: 554 parts of H2 O
solubility [1, 10]: 1.8 mg/mL
solubility [1, 11]: 3.92 mM

CCCCN(C(=O)c1cnc(N2CCNC2=O)nc1N)c1cccc(C(F)(F)F)c1 [Example 55, 4-amino-2-(2-oxo-1-imidazolidinyl)pyrimidine-5-carboxylic acid N-butyl-N-(3-trifluoromethylphenyl)amide hydrochloride]
change in vivo at 30 mg/kg (serum lipoproteins; [4]): -29%
change in vivo at 30 mg/kg (serum lipoproteins; [5]): -9%
change in vivo at 30 mg/kg (serum lipoproteins; [6]): -14%
change in vivo at 30 mg/kg (serum lipoproteins; [7]): -18%
change in vivo at 30 mg/kg (serum lipoproteins; [8]): -20%

CCOC(=O)C(C)(C)Oc1ccc(Cl)cc1 [Clofibrate, reference compound]
change in vivo at 100 mg/kg (serum lipoproteins; [4]): -31%
change in vivo at 100 mg/kg (serum lipoproteins; [5]): -3%
change in vivo at 100 mg/kg (serum lipoproteins; [6]): -51%
change in vivo at 100 mg/kg (serum lipoproteins; [7]): -30%
change in vivo at 100 mg/kg (serum lipoproteins; [8]): -34%

CC1(C)CN(c2ncc(C(=O)N(CC3CC3)c3cc(C(F)(F)F)ccc3F)c(N)n2)C(=O)N1 [Example 41]
change in vivo at 10 mg/kg (serum lipoproteins; [4]): -73%
change in vivo at 10 mg/kg (serum lipoproteins; [5]): -48%
change in vivo at 10 mg/kg (serum lipoproteins; [6]): -100%
change in vivo at 10 mg/kg (serum lipoproteins; [7]): -52%
change in vivo at 10 mg/kg (serum lipoproteins; [8]): -68%
change in vivo at 30 mg/kg (serum lipoproteins; [4]): -66%
change in vivo at 30 mg/kg (serum lipoproteins; [5]): -36%
change in vivo at 30 mg/kg (serum lipoproteins; [6]): -100%
change in vivo at 30 mg/kg (serum lipoproteins; [7]): -45%
change in vivo at 30 mg/kg (serum lipoproteins; [8]): -80%
